Results reported in patent US20040142948A1, “Sulfonamides” (priority 2003, published 2004).

Molecular target: T1, HEK-293 cell membranes containing stable cloned human and rat GPR-14 (UniProt Q9UKP6)
T1 sequence (Q9UKP6 1-389): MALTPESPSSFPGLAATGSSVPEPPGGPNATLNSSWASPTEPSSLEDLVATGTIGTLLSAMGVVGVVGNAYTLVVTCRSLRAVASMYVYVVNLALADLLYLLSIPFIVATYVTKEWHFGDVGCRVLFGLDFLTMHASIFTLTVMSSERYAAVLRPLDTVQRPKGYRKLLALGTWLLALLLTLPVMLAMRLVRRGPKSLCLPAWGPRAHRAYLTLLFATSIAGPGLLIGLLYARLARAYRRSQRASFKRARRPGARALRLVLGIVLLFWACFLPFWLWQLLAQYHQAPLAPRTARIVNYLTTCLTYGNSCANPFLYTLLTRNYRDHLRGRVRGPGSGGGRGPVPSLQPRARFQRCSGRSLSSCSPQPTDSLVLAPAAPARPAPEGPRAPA
Assay: Radioligand binding ([125I] h-U-II)
Details: [125I] h-U-II 200 pM, species of GPR-14 (human or rat) not given
Protocol: HEK-293 cell membranes containing stable cloned human and rat GPR-14 (20 ug/assay) were incubated with 200 pM [125I] h-U-II (200 Ci/mmol^−1 in the presence of increasing concentrations of test compounds in DMSO (0.1 nM to 10 uM), in a final incubation volume of 200 ul (20 mM Tris-HCl, 5 mM MgCl2). Incubation was done for 30 minutes at room temperature followed by filtration GF/B filters with Brandel cell harvester. ^125I labeled U-II binding was quantitated by gamma counting. Nonspecific binding was defined by ^125I U-II binding in the presence of 100 nM of unlabeled human U-II. Analysis of the data was performed by nonlinear least square fitting.

Structure (SMILES): CN1CC[C@@H](Oc2cc(NS(=O)(=O)c3cccc4nsnc34)ccc2Cl)C1 [Example 3, (R)-N-[4-Chloro-3-(1-methyl-3-pyr-rolidinyloxy)-phenyl]-ben-zo[1,2,5]thiadiazole-1-sulfonamide]
- Ki: 230 nM
